In patent US7511145B2 (Genelabs Technologies, Inc., priority 2003, dated 2009):

Target: T1, HCV-NS5b (Hepatitis C virus genotype 1b, UniProt Q9WMX2)
T1 construct: (His)6 (C); made in house; host or cells: XL-1 cells (E. coli), IPTG-inducible plasmid, nickel-NTA purification
Assay: HCV-NS5b enzyme assay (incorporation of radiolabeled UTP)
Type: biochemical
Conditions: for inhibition at 33 µM: enzyme inhibition at compound concentration of 33 uM; for inhibition at 100 µM: read-out: % inh@100, enzyme inhibition at compound concentration of 100 uM
In short: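 Percent inhibition, background-corrected against uninhibited control, was measured at 100 and 33 uM compound. Incorporation of [3H]-UTP (10 μM each NTP) into biotinylated HCV-template RNA, 37° C for 2 h, pH 7.5, scintillation proximity. Enzyme: C-terminally truncated (21 aa), His6-tagged NS5b from XL-1.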

Compound: O=C(O)c1ccc2c(c1)nc(-c1ccc3nc(-c4cccc(O)c4)ccc3c1)n2C1CCCCC1 [Compound 474, 1-Cyclohexyl-2-[2-(3-hydroxy-phenyl)-quinolin-6-yl]-1H-benzoimidazole-5-carboxylic acid]
- inhibition at 33 µM: 97%
- inhibition at 100 µM: 101%

Compound: COCCOc1ccc(-c2ccc(Cl)cc2)c(-c2ccc3cc(-c4nc5cc(C(=O)O)ccc5n4C4CCCCC4)ccc3n2)c1 [Compound 475, 2-{2-[4′-Chloro-4-(2-methoxy-ethoxy)-biphen-2-yl]-quinolin-6-yl}-1-cyclohexyl-1H-benzoimidazole-5-carboxylic acid]
- inhibition at 33 µM: 97.5%
- inhibition at 100 µM: 95.9%

Compound: O=C(O)c1ccc2c(c1)nc(-c1ccc3nc(CCn4cccn4)ccc3c1)n2C1CCCCC1 [Compound 476, 1-cyclohexyl-2-[2-(2-pyrazol-1-yl-ethyl)-quinolin-6-yl]-1H-benzoimidazole-5-carboxylic acid]
- inhibition at 33 µM: 97.3%
- inhibition at 100 µM: 97.1%

Compound: O=C(O)c1cnc2c(c1)nc(-c1ccc3nc(-c4ccccc4Br)ccc3c1)n2C1CCCCC1 [Compound 477, 2-[2-(2-bromo-phenyl)-quinolin-6-yl]-3-cyclohexyl-3H-imidazo[4,5-b]pyridine-6-carboxylic acid]
- inhibition at 33 µM: 92.4%
- inhibition at 100 µM: 95.9%

Compound: O=C(O)c1ccc2c(c1)nc(-c1ccc3nc(-c4ccc5c(c4)CCO5)ccc3c1)n2C1CCCCC1 [Compound 478, 1-cyclohexyl-2-[2-(2,3-dihydro-benzofuran-5-yl)-quinolin-6-yl]-1H-benzoimidazole-5-carboxylic acid]
- inhibition at 33 µM: 95.8%
- inhibition at 100 µM: 97.2%

Compound: O=C(O)c1ccc2c(c1)nc(-c1ccc3nc(-c4cc(-c5ccc(Cl)c(Cl)c5)no4)ccc3c1)n2C1CCCCC1 [Compound 479, 1-cyclohexyl-2-{2-[3-(3,4-dichloro-phenyl)-isoxazol-5-yl]-quinolin-6-yl}-1H-benzoimidazole-5-carboxylic acid]
- inhibition at 33 µM: 99.6%
- inhibition at 100 µM: 102%

Compound: Nc1cc(-c2ccccc2)sc1-c1ccc2cc(-c3nc4cc(C(=O)O)ccc4n3C3CCCCC3)ccc2n1 [Compound 480, 2-[2-(3-amino-5-phenyl-thiophen-2-yl)-quinolin-6-yl]-1-cyclohexyl-1H-benzoimidazole-5-carboxylic acid]
- inhibition at 33 µM: 101%
- inhibition at 100 µM: 104%

Compound: CN(C)c1cc(-c2ccccc2)nc2ccc(-c3nc4cc(C(=O)O)ccc4n3C3CCCCC3)cc12 [Compound 481, 1-cyclohexyl-2-(4-dimethylamino-2-phenyl-quinolin-6-yl)-1H-benzoimidazole-5-carboxylic acid]
- inhibition at 33 µM: 76.5%
- inhibition at 100 µM: 96.7%

Compound: O=C(O)c1ccc2c(c1)nc(-c1ccc3nc(-c4cccc(Br)c4)ccc3c1)n2C1CCCCC1 [Compound 482, 2-[2-(3-bromo-phenyl)-quinolin-6-yl]-1-cyclohexyl-1H-benzoimidazole-5-carboxylic acid]
- inhibition at 33 µM: 100%
- inhibition at 100 µM: 101%

Compound: O=C(O)c1ccc2c(c1)nc(-c1ccc3nc(-c4cccc(-c5ccc(Cl)cc5)c4)ccc3c1)n2C1CCCCC1 [Compound 483, 2-[2-(4′-chloro-biphenyl-3-yl)-quinolin-6-yl]-1-cyclohexyl-1H-benzoimidazole-5-carboxylic acid]
- inhibition at 33 µM: 102%
- inhibition at 100 µM: 99.4%

Compound: COc1ccc(-c2cnc(OC)nc2OC)c(-c2ccc3cc(-c4nc5cc(C(=O)O)ccc5n4C4CCCCC4)ccc3n2)c1 [Compound 484, 1-cyclohexyl-2-{2-[2-(2,4-dimethoxy-pyrimidin-5-yl)-5-methoxy-phenyl]-quinolin-6-yl}-1H-benzoimidazole-5-carboxylic acid]
- inhibition at 33 µM: 99.6%
- inhibition at 100 µM: 98.3%

Compound: Cc1cc(-c2ccccc2-c2ccc(Cl)cc2)nc2ccc(-c3nc4cc(C(=O)O)ccc4n3C3CCCCC3)cc12 [Compound 485, 2-[2-(4′-Chloro-biphen-2-yl)-4-methyl-quinolin-6-yl]-1-cyclohexyl-1H-benzoimidazole-5-carboxylic acid]
- inhibition at 33 µM: 98.6%
- inhibition at 100 µM: 99.5%

Compound: COc1cccc(-c2ccc3cc(-c4nc5cc(C(=O)O)ccc5n4C4CCCCC4)ccc3n2)c1 [Compound 486, 1-Cyclohexyl-2-[2-(3-methoxy-phenyl)-quinolin-6-yl]-1H-benzoimidazole-5-carboxylic acid]
- inhibition at 33 µM: 93.5%
- inhibition at 100 µM: 97.9%

Compound: O=C(O)c1ccc2c(c1)nc(-c1ccc3nc(-c4cc(O)ccc4-c4ccccc4)ccc3c1)n2C1CCCCC1 [Compound 487, 1-Cyclohexyl-2-[2-(4-hydroxy-biphen-2-yl)-quinolin-6-yl]-1H-benzoimidazole-5-carboxylic acid]
- inhibition at 33 µM: 102%
- inhibition at 100 µM: 101%

Compound: O=C(O)c1ccc2c(c1)nc(-c1ccc3nc(-c4ccc(N5CCNCC5)cc4)ccc3c1)n2C1CCCCC1 [Compound 488, 1-cyclohexyl-2-[2-(4-piperazin-1-yl-phenyl)-quinolin-6-yl]-1H-benzoimidazole-5-carboxylic acid]
- inhibition at 33 µM: 91.8%
- inhibition at 100 µM: 97.2%

Compound: CCCN(CCC)Cc1ccc2cc(-c3nc4cc(C(=O)O)ccc4n3C3CCCCC3)ccc2n1 [Compound 489, 1-cyclohexyl-2-(2-dipropylaminomethyl-quinolin-6-yl)-1H-benzoimidazole-5-carboxylic acid]
- inhibition at 33 µM: 87%
- inhibition at 100 µM: 96%

Compound: O=C(O)c1cnc2c(c1)nc(-c1ccc3nc(-c4ccccc4-c4ccc(Cl)cc4)ccc3c1)n2C1CCCCC1 [Compound 490, 2-[2-(4′-chloro-biphen-2-yl)-quinolin-6-yl]-3-cyclohexyl-3H-imidazo[4,5-b]pyridine-6-carboxylic acid]
- inhibition at 33 µM: 95.9%
- inhibition at 100 µM: 94.3%

Compound: CN(C)CCNC(=O)c1ccc(-c2ccc(Cl)cc2)c(-c2ccc3cc(-c4nc5cc(C(=O)O)ccc5n4C4CCCCC4)ccc3n2)c1 [Compound 491, 2-{2-[4′-Chloro-4-(2-dimethylamino-ethylcarbamoyl)-biphen-2-yl]-quinolin-6-yl}-1-cyclohexyl-1H-benzoimidazole-5-carboxylic acid]
- inhibition at 33 µM: 98.3%
- inhibition at 100 µM: 100%

Compound: O=C(O)c1ccc2c(c1)nc(-c1ccc3nc(-c4ccc(Oc5ccc(Cl)cc5)cc4Cl)ccc3c1)n2C1CCCCC1 [Compound 492, 2-{2-[2-chloro-4-(4-chloro-phenoxy)-phenyl]-quinolin-6-yl}-1-cyclohexyl-1H-benzoimidazole-5-carboxylic acid]
- inhibition at 33 µM: 99.2%
- inhibition at 100 µM: 100%

Compound: COc1ccc2occ(-c3ccc4cc(-c5nc6cc(C(=O)O)ccc6n5C5CCCCC5)ccc4n3)c2c1 [Compound 493, 1-cyclohexyl-2-[2-(5-methoxy-benzofuran-3-yl)-quinolin-6-yl]-1H-benzoimidazole-5-carboxylic acid]
- inhibition at 33 µM: 101%
- inhibition at 100 µM: 100%

Compound: CCOc1cc(-c2ccccc2)nc2ccc(-c3nc4cc(C(=O)O)ccc4n3C3CCCCC3)cc12 [Compound 494, 1-cyclohexyl-2-(4-ethoxy-2-phenyl-quinolin-6-yl)-1H-benzoimidazole-5-carboxylic acid]
- inhibition at 33 µM: 94.8%
- inhibition at 100 µM: 99.2%

Compound: COc1cc(OC)cc(-c2ccc3cc(-c4nc5cc(C(=O)O)ccc5n4C4CCCCC4)ccc3n2)c1 [Compound 495, 1-cyclohexyl-2-[2-(3,5-dimethoxy-phenyl)-quinolin-6-yl]-1H-benzoimidazole-5-carboxylic acid]
- inhibition at 33 µM: 99.8%
- inhibition at 100 µM: 101%
